Reference: ChEMBL document CHEMBL1144772, “Synthesis, in vitro pharmacology, and pharmacokinetic profiles of 2-[1-amino-1-carboxy-2-(9H-xanthen-9-yl)-ethyl]-1-fluorocyclopropanecarboxylic acid and its 6-heptyl ester, a potent mGluR2 antagonist” (Bioorg Med Chem, 2008)

How the values were obtained:
[1] = AUC (0 to infinity) in Sprague-Dawley rat at 10 mg/kg, po; format: ADME, organism-based; set-up: dose 10 mg/kg, route oral, time infinity; conditions: plasma
[2] = Transformation of (+)-17 to (+)-16a in monkey liver S9 fraction at 3 uM after 60 mins; conditions: rhesus monkey
[3] = Cmax in Sprague-Dawley rat at 10 mg/kg, po; format: ADME, organism-based; set-up: dose 10 mg/kg, route oral; conditions: in vivo
[4] = Half life in Sprague-Dawley rat at 10 mg/kg, po; format: ADME, organism-based; set-up: dose 10 mg/kg, route oral; conditions: in vivo
[5] = Transformation of (+)-17 to (+)-16a in rat liver S9 fraction at 3 uM after 60 mins
[6] = Transformation of (+)-17 to (+)-16a in human liver S9 fraction at 3 uM after 60 mins
[7] = Tmax in Sprague-Dawley rat at 10 mg/kg, po; format: ADME, organism-based; set-up: dose 10 mg/kg, route oral; conditions: in vivo
[8] = molecular target: Metabotropic glutamate receptor 2 (Homo sapiens, UniProt Q14416); assay: Displacement of [3H]-MGS0008 from mGluR2 expressed in CHO cells; format: cell-based
Sequence of Metabotropic glutamate receptor 2 (Q14416 whole entry): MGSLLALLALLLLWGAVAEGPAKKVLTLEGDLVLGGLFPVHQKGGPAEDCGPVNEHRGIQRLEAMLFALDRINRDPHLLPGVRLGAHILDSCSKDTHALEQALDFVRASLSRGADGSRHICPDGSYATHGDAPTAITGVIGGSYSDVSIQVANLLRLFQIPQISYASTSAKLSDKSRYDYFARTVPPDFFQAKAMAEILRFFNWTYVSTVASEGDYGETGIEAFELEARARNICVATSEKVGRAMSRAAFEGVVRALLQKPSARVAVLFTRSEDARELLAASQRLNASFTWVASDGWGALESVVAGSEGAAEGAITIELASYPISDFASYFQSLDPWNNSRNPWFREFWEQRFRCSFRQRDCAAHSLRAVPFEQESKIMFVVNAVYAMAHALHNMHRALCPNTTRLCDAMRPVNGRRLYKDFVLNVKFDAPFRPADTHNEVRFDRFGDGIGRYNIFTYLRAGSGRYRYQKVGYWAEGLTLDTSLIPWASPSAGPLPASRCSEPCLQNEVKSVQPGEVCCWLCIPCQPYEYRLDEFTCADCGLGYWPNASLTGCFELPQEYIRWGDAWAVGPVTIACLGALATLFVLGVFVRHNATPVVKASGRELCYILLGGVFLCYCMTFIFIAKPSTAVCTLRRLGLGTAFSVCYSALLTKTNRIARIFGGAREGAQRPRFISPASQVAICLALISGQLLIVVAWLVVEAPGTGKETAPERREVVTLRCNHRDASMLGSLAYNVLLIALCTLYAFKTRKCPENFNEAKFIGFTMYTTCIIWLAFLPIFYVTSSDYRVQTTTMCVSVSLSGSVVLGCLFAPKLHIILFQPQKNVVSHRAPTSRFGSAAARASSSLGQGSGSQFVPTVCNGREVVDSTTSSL

Row | AUC(0-inf) [1] [ng·h/mL] | Cmax [3] [ng/mL] | half-life [4] [h] | Tmax [7] [h] | IC50 [8] [nM] | SMILES | also measured
1 | – | – | – | – | > 10000 | N[C@@](CC1c2ccccc2Oc2ccccc21)(C(=O)O)[C@@H]1C[C@@]1(F)C(=O)O | –
2 | – | – | – | – | 4.45 | NC(CC1c2ccccc2Oc2ccccc21)(C(=O)O)C1CC1(F)C(=O)O (racemic; form 1) | –
3 | – | – | – | – | 211 | NC(CC1c2ccccc2Oc2ccccc21)(C(=O)O)C1CC1(F)C(=O)O (racemic; form 2) | –

Second part, the compound before the results:

Row | SMILES | AUC(0-inf) [1] [ng·h/mL] | Cmax [3] [ng/mL] | half-life [4] [h] | Tmax [7] [h] | IC50 [8] [nM] | also measured
4 | CCCCCCCOC(=O)[C@@]1(F)C[C@@H]1[C@@](N)(CC1c2ccccc2Oc2ccccc21)C(=O)O | 78000 | 8640 | 3.87 | 2 | – | transformation ratio at 1 h, 3 µM [2]: 7.3%; transformation ratio at 1 h, 3 µM [5]: 68.1%; transformation ratio at 1 h, 3 µM [6]: 12.1%
5 | N[C@](CC1c2ccccc2Oc2ccccc21)(C(=O)O)[C@H]1C[C@]1(F)C(=O)O | 3310 | 308 | 5.05 | 2.67 | 3.49 | –
6 | N[C@](CC1c2ccccc2Oc2ccccc21)(C(=O)O)[C@H]1C[C@@H]1C(=O)O | 284 | – | – | – | – | –
